From patent US12404268B2, “2-heteroaryl aminoquinazolinone derivative” (Sumitomo Pharma Co., Ltd., priority 2020, dated 2025)

Tested on: neurons induced to differentiate from SCN1A gene deficient human iPS cells
Assay: Test for measuring hyperexcitation suppression activity (spontaneous calcium oscillation frequency)
Format: cell-based
Conditions: Homo sapiens, Neuron; @0.1 μM; read-out: inhibition rate
Source text: Test for Measuring Hyperexcitation Suppression Activity Using Neurons Induced to Differentiate from SCN1A Gene Deficient Human iPS Cells
(1) Induction of Differentiation from Human iPS cells to Neurons
Half of the culture solution was exchanged once every 3 to 4 days.
(2) Fluorescent Calcium Probe Treatment, Addition of Compound, and Evaluation of Intracellular Calcium Concentration
Half of the culture solution was removed on day 60 from induction of differentiation or thereafter. A medium for measurement comprising a fluorescent calcium probe (Molecular Device, product name: FLIPR Calcium 6 Assay Bulk Kit, cat #R8191) was added at an amount equal to the remaining medium. The culture was left standing for 30 minutes and subjected to measurement.
The test compounds were serially diluted with a dimethyl sulfoxide (DMSO) solution so that the final concentration would be 0.1 to 100 μM to prepare a concentrate with a concentration that is 6-fold of the final concentration.
The intensity of fluorescence of a calcium probe was measured over time with FDSS7000EX (Hamamatsu Photonics) to evaluate the change in intracellular calcium concentrations. First, the intensity of fluorescence was measured for 2 minutes. The compound solutions were then added using FDSS7000EX for an additional 8 minute measurement of fluorescence intensity. The frequency of spontaneous calcium oscillation was quantified as an indicator of nerve excitation. With the frequency for 2 minutes before the addition of the compound solutions as 100%, the ratio of frequency for the last 2 minutes after addition of the compound solutions was calculated.

| Structure (SMILES) | inhibition at 0.1 µM [%] |
| --- | --- |
| Cc1ccccc1-n1c(Nc2cncc(F)c2)nc2ccc(F)cc2c1=O [Example 4, 6-fluoro-2-((5-fluoropyridin-3-yl)amino)-3-(o-tolyl)quinazolin-4(3H)-one] | 88 |

Same assay, conditions: Homo sapiens, Neuron; @1 μM; read-out: inhibition rate

| Structure (SMILES) | inhibition at 1 µM [%] |
| --- | --- |
| O=c1c2ccccc2nc(Nc2ccc3ocnc3c2)n1-c1ccccc1 [Example 1, 2-(benzo[d]oxazol-5-ylamino)-3-phenylquinazolin-4(3H)-one] | 31 |
| O=c1c2cc(Cl)ccc2nc(Nc2cccnc2)n1-c1ccccc1Cl [Example 15, 6-chloro-3-(2-chlorophenyl)-2-(pyridin-3-ylamino)quinazolin-4(3H)-one] | 99 |
| COc1ccncc1Nc1nc2ccc(Cl)cc2c(=O)n1-c1ccccc1 [Example 23] | 61 |
| Cc1cccnc1Nc1nc2ccc(Cl)cc2c(=O)n1-c1ccccc1 [Example 26] | 23 |
| Cc1cncc(Nc2nc3ccc(F)cc3c(=O)n2-c2ccccc2)c1 [Example 27] | 37 |
| COc1cncc(Nc2nc3ccc(F)cc3c(=O)n2-c2ccccc2)c1 [Example 28] | 32 |
| Cc1ccc(Nc2nc3ccc(F)cc3c(=O)n2-c2ccccc2)cn1 [Example 30] | 67 |
| O=c1c2cc(Cl)ccc2nc(Nc2cccnc2)n1-c1ccccc1 [Example 31, 6-chloro-3-phenyl-2-(pyridin-3-ylamino)quinazolin-4(3H)-one] | 93 |
| O=c1c2cc(F)ccc2nc(Nc2cccnc2)n1-c1cccnc1 [Example 35, 6-fluoro-3-(pyridin-3-yl)-2-(pyridin-3-ylamino)quinazolin-4(3H)-one] | 88 |
| O=c1c2cc(Cl)ccc2nc(Nc2cnccn2)n1-c1ccccc1 [Example 38, 6-chloro-3-phenyl-2-(pyrazin-2-ylamino)quinazolin-4(3H)-one] | 88 |
| O=c1c2cc(F)ccc2nc(Nc2cnccn2)n1-c1ccccc1 [Example 39, 6-fluoro-3-phenyl-2-(pyrazin-2-ylamino)quinazolin-4(3H)-one] | 100 |
| N#Cc1cncc(Nc2nc3ccc(Cl)cc3c(=O)n2-c2ccccc2)c1 [Example 41, 5-((6-chloro-4-oxo-3-phenyl-3,4-dihydroquinazolin-2-yl)amino)nicotinonitrile] | 95 |
| Cc1ccc2nc(Nc3cccnc3)n(-c3ccccc3)c(=O)c2c1 [Example 42, 6-methyl-3-phenyl-2-(pyridin-3-ylamino)quinazolin-4(3H)-one] | 98 |
| O=c1c2cc(F)ccc2nc(Nc2cncc(Cl)c2)n1-c1ccccc1 [Example 45, 2-((5-chloropyridin-3-yl)amino)-6-fluoro-3-phenylquinazolin-4(3H)-one] | 100 |
| O=c1c2cc(F)ccc2nc(Nc2cncc(C(F)(F)F)c2)n1-c1ccccc1 [Example 48] | 55 |
| O=c1c2cc(Cl)ccc2nc(Nc2cccnc2)n1-c1ccccc1F [Example 51, 6-chloro-3-(2-fluorophenyl)-2-(pyridin-3-ylamino)quinazolin-4(3H)-one] | 100 |
| Cn1ncc2ccc(Nc3nc4ccccc4c(=O)n3-c3ccccc3)cc21 [Example 54, 2-((1-methyl-1H-indazol-6-yl)amino)-3-phenylquinazolin-4(3H)-one] | 95 |
| O=c1c2ccccc2nc(Nc2cccnc2)n1C1CCCCC1 [Example 57] | 21 |
| CC(C)n1c(Nc2cccnc2)nc2ccc(F)cc2c1=O [Example 59] | 39 |

Same assay, conditions: Homo sapiens, Neuron; @10 μM; read-out: inhibition rate

| Structure (SMILES) | inhibition at 10 µM [%] |
| --- | --- |
| Cn1cnc2ccc(Nc3nc4ccccc4c(=O)n3-c3ccccc3)cc21 [Example 2, 2-((1-methyl-1H-benzo[d]imidazol-6-yl)amino)-3-phenylquinazolin-4(3H)-one] | 57 |
| O=c1c2cc(Cl)ccc2nc(Nc2ccc3nncn3c2)n1-c1ccccc1 [Example 16] | 42 |
| COCc1nccc(Nc2nc3ccc(Cl)cc3c(=O)n2-c2ccccc2)n1 [Example 21] | 27 |
| COc1ccc(Nc2nc3ccc(Cl)cc3c(=O)n2-c2ccccc2)cn1 [Example 22] | 70 |
| Cc1ncccc1Nc1nc2ccc(Cl)cc2c(=O)n1-c1ccccc1 [Example 24] | 54 |
| O=c1c2cc(Cl)ccc2nc(Nc2ccc(F)cn2)n1-c1ccccc1 [Example 25] | 82 |
| Cc1ncccc1Nc1nc2ccc(F)cc2c(=O)n1-c1ccccc1 [Example 29] | 82 |
| O=c1c2cc(Cl)ccc2nc(Nc2ccncc2)n1-c1ccccc1 [Example 33] | 100 |
| O=c1c2cc(Cl)ccc2nc(Nc2ccnnc2)n1-c1ccccc1 [Example 34] | 57 |
| Cc1nccc(Nc2nc3ccc(Cl)cc3c(=O)n2-c2ccccc2)n1 [Example 36] | 32 |
| COCc1nccc(Nc2nc3ccc(F)cc3c(=O)n2-c2ccccc2)n1 [Example 37] | 68 |
| CC(C)c1ccc(Nc2nc3ccc(Cl)cc3c(=O)n2-c2ccccc2)cn1 [Example 44] | 81 |
| Cc1ccncc1Nc1nc2ccc(F)cc2c(=O)n1-c1ccccc1 [Example 47] | 89 |
| CCc1ccc(Nc2nc3ccc(Cl)cc3c(=O)n2-c2ccccc2)cn1 [Example 49] | 34 |
| CCc1ccc(Nc2nc3ccc(F)cc3c(=O)n2-c2ccccc2)cn1 [Example 50] | 100 |
| O=c1c2cc(Cl)ccc2nc(Nc2ccc(C(F)(F)F)cn2)n1-c1ccccc1 [Example 53] | 79 |
| CC(C)n1c(Nc2cccnc2)nc2ccccc2c1=O [Example 55] | 88 |
| O=c1c2ccccc2nc(Nc2cccnc2)n1C1CCCC1 [Example 56] | 100 |
| O=c1c2ccccc2nc(Nc2cccnc2)n1C1CCC(F)(F)CC1 [Example 58] | 100 |
| O=c1c2cc(F)ccc2nc(Nc2cccnc2)n1C1CCCC1 [Example 60] | 100 |

Same assay, conditions: Homo sapiens, Neuron; @100 μM; read-out: inhibition rate

| Structure (SMILES) | inhibition at 100 µM [%] |
| --- | --- |
| COc1ccc2nc(Nc3cccnc3)n(-c3ccccc3)c(=O)c2c1 [Example 13] | 20 |
| COc1cc(F)cc2c(=O)n(-c3ccccc3)c(Nc3cccnc3)nc12 [Example 17] | 17 |
| Cc1cc(Nc2nc3ccc(Cl)cc3c(=O)n2-c2ccccc2)ncn1 [Example 46] | 34 |

Same assay, conditions: Neuron; SCN1A gene deficient human iPS cell-derived neurons; FLIPR Calcium 6, FDSS7000EX; read-out: IC50 (50% inhibitory concentration, frequency of spontaneous calcium oscillation)

| IC50 [nM] | Structure (SMILES) |
| --- | --- |
| 6100 | O=c1c2cc(Cl)ccc2nc(Nc2ccc3nccnc3c2)n1-c1ccccc1 [Example 5] |
| 400 | O=c1c2cc(Cl)ccc2nc(Nc2cncnc2)n1-c1ccccc1 [Example 6] |
| 6500 | O=c1c2cc(Cl)ccc2nc(Nc2ncccn2)n1-c1ccccc1 [Example 7] |
| 1000 | Cc1ccc(Nc2nc3ccc(Cl)cc3c(=O)n2-c2ccccc2)cn1 [Example 8] |
| 600 | O=c1c2cc(Cl)ccc2nc(Nc2cccnn2)n1-c1ccccc1 [Example 9] |
| 300 | COc1ncccc1Nc1nc2ccc(Cl)cc2c(=O)n1-c1ccccc1 [Example 10, 6-chloro-2-((2-methoxypyridin-3-yl)amino)-3-phenylquinazolin-4(3H)-one] |
| 5800 | O=c1c2cc(Cl)ccc2nc(Nc2cnccc2C(F)(F)F)n1-c1ccccc1 [Example 11] |
| 800 | O=c1c2cc(F)ccc2nc(Nc2cccnn2)n1-c1ccccc1 [Example 18] |
| 2200 | O=c1c2cc(F)ccc2nc(Nc2ccnnc2)n1-c1ccccc1 [Example 19] |
| 4900 | O=c1c2cc(F)ccc2nc(Nc2ccncn2)n1-c1ccccc1 [Example 20] |
